Earlier results, collected in paper PMC8513935.

Experiments:
[1] = experimental, compiled by the authors from the literature (the ESI cites the sources)
[2] = derived by the authors as gas->solvent minus gas->water (a hypothetical dry solvent; the ESI), not a two-phase measurement
[3] = log P octanol/water from commercial databases, averaged (the ESI); settings: Octanol (wet), 25 C

## c1ccc2c(c1)-c1cccc3cccc-2c13
[1]; 1,2-Dichloroethane, 25 C
  log K of transfer, gas to solvent: 9.52 log10 K
[1]; 2-Methylpropan-1-ol, 25 C
  log K of transfer, gas to solvent: 8.1 log10 K
[1]; 3-Methylbutan-1-ol, 25 C
  log K of transfer, gas to solvent: 8.25 log10 K
[1]; Acetonitrile, 25 C
  log K of transfer, gas to solvent: 8.75 log10 K
[1]; Benzene, 25 C
  log K of transfer, gas to solvent: 9.46 log10 K
[1]; Butan-1-ol, 25 C
  log K of transfer, gas to solvent: 8.4 log10 K
[1]; Butan-2-ol, 25 C
  log K of transfer, gas to solvent: 8.25 log10 K
[1]; CCl4, 25 C
  log K of transfer, gas to solvent: 9.27 log10 K
[1]; Chloroform, 25 C
  log K of transfer, gas to solvent: 9.56 log10 K
[1]; Cyclohexane, 25 C
  log K of transfer, gas to solvent: 8.51 log10 K
[1]; Di-n-butyl ether, 25 C
  log K of transfer, gas to solvent: 8.84 log10 K
[1]; Diethyl Ether, 25 C
  log K of transfer, gas to solvent: 9.08 log10 K
[1]; Ethanol, 25 C
  log K of transfer, gas to solvent: 8.33 log10 K
[1]; Heptan-1-ol, 25 C
  log K of transfer, gas to solvent: 8.72 log10 K
[1]; Hexadecane, 25 C
  log K of transfer, gas to solvent: 8.82 log10 K
[1]; Hexan-1-ol, 25 C
  log K of transfer, gas to solvent: 8.56 log10 K
[1]; Hexane, 25 C
  log K of transfer, gas to solvent: 8.41 log10 K
[1]; Methanol, 25 C
  log K of transfer, gas to solvent: 8.18 log10 K
[1]; Octan-1-ol, 25 C
  log K of transfer, gas to solvent: 8.61 log10 K
[1]; Pentan-1-ol, 25 C
  log K of transfer, gas to solvent: 8.49 log10 K
[1]; Propan-1-ol, 25 C
  log K of transfer, gas to solvent: 8.31 log10 K
[1]; Propan-2-ol, 25 C
  log K of transfer, gas to solvent: 8.15 log10 K
[1]; Toluene, 25 C
  log K of transfer, gas to solvent: 9.38 log10 K
[1]; Water, 25 C
  log K of transfer, gas to solvent: 3.44 log10 K
[2]; 1,2-Dichloroethane, 25 C
  log K of transfer, water to solvent: 6.08 log10 K
[2]; 2-Methylpropan-1-ol, 25 C
  log K of transfer, water to solvent: 4.66 log10 K
[2]; 3-Methylbutan-1-ol, 25 C
  log K of transfer, water to solvent: 4.81 log10 K
[2]; Acetonitrile, 25 C
  log K of transfer, water to solvent: 5.31 log10 K
[2]; Benzene, 25 C
  log K of transfer, water to solvent: 6.02 log10 K
[2]; Butan-1-ol, 25 C
  log K of transfer, water to solvent: 4.96 log10 K
[2]; Butan-2-ol, 25 C
  log K of transfer, water to solvent: 4.81 log10 K
[2]; CCl4, 25 C
  log K of transfer, water to solvent: 5.83 log10 K
[2]; Chloroform, 25 C
  log K of transfer, water to solvent: 6.12 log10 K
[2]; Cyclohexane, 25 C
  log K of transfer, water to solvent: 5.07 log10 K
[2]; Di-n-butyl ether, 25 C
  log K of transfer, water to solvent: 5.41 log10 K
[2]; Diethyl Ether, 25 C
  log K of transfer, water to solvent: 5.64 log10 K
[2]; Ethanol, 25 C
  log K of transfer, water to solvent: 4.89 log10 K
[2]; Heptan-1-ol, 25 C
  log K of transfer, water to solvent: 5.28 log10 K
[2]; Hexadecane, 25 C
  log K of transfer, water to solvent: 5.38 log10 K
[2]; Hexan-1-ol, 25 C
  log K of transfer, water to solvent: 5.13 log10 K
[2]; Hexane, 25 C
  log K of transfer, water to solvent: 4.98 log10 K
[2]; Methanol, 25 C
  log K of transfer, water to solvent: 4.74 log10 K
[2]; Octan-1-ol(dry), 25 C
  log K of transfer, water to solvent: 5.17 log10 K
[2]; Pentan-1-ol, 25 C
  log K of transfer, water to solvent: 5.05 log10 K
[2]; Propan-1-ol, 25 C
  log K of transfer, water to solvent: 4.87 log10 K
[2]; Propan-2-ol, 25 C
  log K of transfer, water to solvent: 4.72 log10 K
[2]; Toluene, 25 C
  log K of transfer, water to solvent: 5.94 log10 K
[3]
  log K of transfer, water to solvent: 5.16 log10 K

## CCC(C)O (stereo not shown)
[1]; 2-Methylpropan-2-ol, 25 C
  log K of transfer, gas to solvent: 4.16 log10 K
[1]; Butan-1-ol, 25 C
  log K of transfer, gas to solvent: 4.03 log10 K
[1]; Butan-2-ol, 25 C
  log K of transfer, gas to solvent: 4.09 log10 K
[1]; Butanone, 25 C
  log K of transfer, gas to solvent: 3.8 log10 K
[1]; CCl4, 25 C
  log K of transfer, gas to solvent: 2.85 log10 K
[1]; Chlorobenzene, 25 C
  log K of transfer, gas to solvent: 3.12 log10 K
[1]; Chloroform, 25 C
  log K of transfer, gas to solvent: 3.69 log10 K
[1]; Decan-1-ol, 25 C
  log K of transfer, gas to solvent: 3.89 log10 K
[1]; Hexadecane, 25 C
  log K of transfer, gas to solvent: 2.34 log10 K
[1]; Hexane, 25 C
  log K of transfer, gas to solvent: 2.61 log10 K
[1]; Octan-1-ol, 25 C
  log K of transfer, gas to solvent: 3.8 log10 K
[1]; Water, 25 C
  log K of transfer, gas to solvent: 3.39 log10 K
[2]; 2-Methylpropan-2-ol, 25 C
  log K of transfer, water to solvent: 0.77 log10 K
[2]; Butan-1-ol, 25 C
  log K of transfer, water to solvent: 0.64 log10 K
[2]; Butan-2-ol, 25 C
  log K of transfer, water to solvent: 0.7 log10 K
[2]; Butanone, 25 C
  log K of transfer, water to solvent: 0.41 log10 K
[2]; CCl4, 25 C
  log K of transfer, water to solvent: -0.54 log10 K
[2]; Chlorobenzene, 25 C
  log K of transfer, water to solvent: -0.27 log10 K
[2]; Chloroform, 25 C
  log K of transfer, water to solvent: 0.3 log10 K
[2]; Decan-1-ol, 25 C
  log K of transfer, water to solvent: 0.506 log10 K
[2]; Hexadecane, 25 C
  log K of transfer, water to solvent: -1.05 log10 K
[2]; Hexane, 25 C
  log K of transfer, water to solvent: -0.783 log10 K
[2]; Octan-1-ol(dry), 25 C
  log K of transfer, water to solvent: 0.41 log10 K
[3]
  log K of transfer, water to solvent: 0.65 log10 K

## CCCCF
[1]; Hexadecane, 25 C
  log K of transfer, gas to solvent: 1.77 log10 K
[1]; Water, 25 C
  log K of transfer, gas to solvent: -0.29 log10 K
[2]; Hexadecane, 25 C
  log K of transfer, water to solvent: 2.06 log10 K
[3]
  log K of transfer, water to solvent: 2.29 log10 K

## CCCC(C)C
[1]; 1,2-Dichloroethane, 25 C
  log K of transfer, gas to solvent: 2.34 log10 K
[1]; Acetonitrile, 25 C
  log K of transfer, gas to solvent: 1.82 log10 K
[1]; Butan-1-ol, 25 C
  log K of transfer, gas to solvent: 2.29 log10 K
[1]; Butanone, 25 C
  log K of transfer, gas to solvent: 2.39 log10 K
[1]; Butyronitrile, 25 C
  log K of transfer, gas to solvent: 2.21 log10 K
[1]; CCl4, 25 C
  log K of transfer, gas to solvent: 2.81 log10 K
[1]; Chlorobenzene, 25 C
  log K of transfer, gas to solvent: 2.78 log10 K
[1]; Chloroform, 25 C
  log K of transfer, gas to solvent: 2.71 log10 K
[1]; Cyclohexanone, 25 C
  log K of transfer, gas to solvent: 2.3 log10 K
[1]; Dichloromethane, 25 C
  log K of transfer, gas to solvent: 2.59 log10 K
[1]; Ethanol, 25 C
  log K of transfer, gas to solvent: 2.16 log10 K
[1]; Hexadecane, 25 C
  log K of transfer, gas to solvent: 2.5 log10 K
[1]; Hexane, 25 C
  log K of transfer, gas to solvent: 2.82 log10 K
[1]; Methanol, 25 C
  log K of transfer, gas to solvent: 1.95 log10 K
[1]; Pentan-1-ol, 25 C
  log K of transfer, gas to solvent: 2.42 log10 K
[1]; Perfluoroalkane, 25 C
  log K of transfer, gas to solvent: 1.81 log10 K
[1]; Propan-1-ol, 25 C
  log K of transfer, gas to solvent: 2.15 log10 K
[1]; Propan-2-ol, 25 C
  log K of transfer, gas to solvent: 2.16 log10 K
[1]; Propanone, 25 C
  log K of transfer, gas to solvent: 2.24 log10 K
[1]; Propionitrile, 25 C
  log K of transfer, gas to solvent: 2.08 log10 K
[1]; Tetrahydrofuran, 25 C
  log K of transfer, gas to solvent: 2.7 log10 K
[1]; Toluene, 25 C
  log K of transfer, gas to solvent: 2.65 log10 K
[1]; Water, 25 C
  log K of transfer, gas to solvent: -1.84 log10 K
[2]; 1,2-Dichloroethane, 25 C
  log K of transfer, water to solvent: 4.18 log10 K
[2]; Acetone, 25 C
  log K of transfer, water to solvent: 4.08 log10 K
[2]; Acetonitrile, 25 C
  log K of transfer, water to solvent: 3.66 log10 K
[2]; Butan-1-ol, 25 C
  log K of transfer, water to solvent: 4.13 log10 K
[2]; Butanone, 25 C
  log K of transfer, water to solvent: 4.23 log10 K
[2]; Butyronitrile, 25 C
  log K of transfer, water to solvent: 4.05 log10 K
[2]; CCl4, 25 C
  log K of transfer, water to solvent: 4.65 log10 K
[2]; Chlorobenzene, 25 C
  log K of transfer, water to solvent: 4.62 log10 K
[2]; Chloroform, 25 C
  log K of transfer, water to solvent: 4.55 log10 K
[2]; Cyclohexanone, 25 C
  log K of transfer, water to solvent: 4.14 log10 K
[2]; Dichloromethane, 25 C
  log K of transfer, water to solvent: 4.43 log10 K
[2]; Ethanol, 25 C
  log K of transfer, water to solvent: 4 log10 K
[2]; Hexadecane, 25 C
  log K of transfer, water to solvent: 4.34 log10 K
[2]; Hexane, 25 C
  log K of transfer, water to solvent: 4.66 log10 K
[2]; Methanol, 25 C
  log K of transfer, water to solvent: 3.79 log10 K
[2]; Pentan-1-ol, 25 C
  log K of transfer, water to solvent: 4.26 log10 K
[2]; Perfluoroalkane, 25 C
  log K of transfer, water to solvent: 3.65 log10 K
[2]; Propan-1-ol, 25 C
  log K of transfer, water to solvent: 3.99 log10 K
[2]; Propan-2-ol, 25 C
  log K of transfer, water to solvent: 4 log10 K
[2]; Propionitrile, 25 C
  log K of transfer, water to solvent: 3.92 log10 K
[2]; Tetrahydrofuran, 25 C
  log K of transfer, water to solvent: 4.54 log10 K
[2]; Toluene, 25 C
  log K of transfer, water to solvent: 4.49 log10 K
[3]
  log K of transfer, water to solvent: 3.73 log10 K

## CCCCl
[1]; 1,2-Dichloroethane, 25 C
  log K of transfer, gas to solvent: 2.71 log10 K
[1]; Butan-1-ol, 25 C
  log K of transfer, gas to solvent: 2.32 log10 K
[1]; Butanone, 25 C
  log K of transfer, gas to solvent: 2.7 log10 K
[1]; CCl4, 25 C
  log K of transfer, gas to solvent: 2.71 log10 K
[1]; Chloroform, 25 C
  log K of transfer, gas to solvent: 2.65 log10 K
[1]; Cyclohexanone, 25 C
  log K of transfer, gas to solvent: 2.69 log10 K
[1]; Hexadecane, 25 C
  log K of transfer, gas to solvent: 2.2 log10 K
[1]; Hexane, 25 C
  log K of transfer, gas to solvent: 2.47 log10 K
[1]; Octan-1-ol, 25 C
  log K of transfer, gas to solvent: 2.24 log10 K
[1]; Water, 25 C
  log K of transfer, gas to solvent: 0.24 log10 K
[2]; 1,2-Dichloroethane, 25 C
  log K of transfer, water to solvent: 2.47 log10 K
[2]; Butan-1-ol, 25 C
  log K of transfer, water to solvent: 2.08 log10 K
[2]; Butanone, 25 C
  log K of transfer, water to solvent: 2.46 log10 K
[2]; CCl4, 25 C
  log K of transfer, water to solvent: 2.47 log10 K
[2]; Chloroform, 25 C
  log K of transfer, water to solvent: 2.41 log10 K
[2]; Cyclohexanone, 25 C
  log K of transfer, water to solvent: 2.45 log10 K
[2]; Hexadecane, 25 C
  log K of transfer, water to solvent: 1.96 log10 K
[2]; Hexane, 25 C
  log K of transfer, water to solvent: 2.23 log10 K
[2]; Octan-1-ol(dry), 25 C
  log K of transfer, water to solvent: 2 log10 K
[3]
  log K of transfer, water to solvent: 2.04 log10 K
